Earlier results in patent publication US20120059599A1, “HYBRID FRAGMENT-LIGAND MODELING FOR C[…] COMPOUNDS” (UNIVERSITY OF LOUISVILLE, priority 2010, published 2012).

How the values were obtained:
experimental animals = conditions: IARC
humans = conditions: IARC
Salmonella = conditions: reported in the CPDB
estrogen receptor = conditions: has been demonstrated
[1] = has been demonstrated
mammary = conditions: reported in the CPDB

SMILES	evidence for carcinogenicity in experimental animals (experimental animals)	evidence to determine carcinogenicity in humans (humans)	Salmonella mutagenicity (Salmonella)	estrogen receptor ligand (estrogen receptor)	genotoxic carcinogen [1]	mammary carcinogenicity (mammary)
Cn1c(N)nc2ncc(-c3ccccc3)cc21 [PhIP, 2-amino-1-methyl-6-phenylimidazo[4,5-b]pyridine]	antiquated evidence	inadequate evidence	mutagen	estrogen receptor ligand	genotoxic carcinogen	mammary carcinogen
CCNc1nc(Cl)nc(NC(C)C)n1 [Atrazine]	–	–	non-mutagen	–	–	–
